Patent US20250049736A1, “SULFONAMIDE DERIVATIVES AND THEIR USE AS SOLUBLE EPOXIDE HYDROLASE INHIBITORS” (THE UNITED STATES OF AMERICA, AS REPRESENTED BY THE …, priority 2021, published 2025)

Key:
[1] = target: inducible nitric oxide synthase (iNOS) (Mus musculus (Mouse), UniProt P29477); experiment: iNOS inhibition primary assay; assay type: biochemical; conditions: 10 μM of each compound; mouse cell line
Protocol: Biochemical assay results are presented as the percent inhibition of specific binding or activity. The concentration of each compound was 10 μM.

[2] = target: human sEH (Homo sapiens (Human), UniProt P34913); experiment: Fluorescence-based sEH inhibitor screening assay (PHOME substrate); assay type: biochemical; conditions: dose-dependent fluorescence assay
Chain of human sEH (P34913 whole entry): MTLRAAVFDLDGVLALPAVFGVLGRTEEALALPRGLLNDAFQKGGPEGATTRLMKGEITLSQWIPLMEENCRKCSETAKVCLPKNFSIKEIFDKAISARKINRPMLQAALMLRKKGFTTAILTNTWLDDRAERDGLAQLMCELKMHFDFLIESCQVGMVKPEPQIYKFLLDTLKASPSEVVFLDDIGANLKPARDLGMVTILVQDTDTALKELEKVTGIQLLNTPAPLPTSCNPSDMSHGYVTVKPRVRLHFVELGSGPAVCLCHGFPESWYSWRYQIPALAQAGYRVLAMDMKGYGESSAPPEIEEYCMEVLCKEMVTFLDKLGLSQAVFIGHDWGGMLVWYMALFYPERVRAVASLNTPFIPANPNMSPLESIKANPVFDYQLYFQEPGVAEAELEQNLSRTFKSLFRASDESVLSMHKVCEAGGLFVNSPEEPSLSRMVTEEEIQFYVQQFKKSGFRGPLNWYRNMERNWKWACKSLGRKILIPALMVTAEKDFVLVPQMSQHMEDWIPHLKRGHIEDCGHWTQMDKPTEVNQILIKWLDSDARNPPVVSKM
Protocol: Fluorescence-based sEH inhibitor screening assay provided a convenient method for screening human epoxide hydrolase inhibitors. The assay utilized (3-phenyl-oxiranyl)-acetic acid cyano-(6-methoxy-naphthalen-2-yl)-methyl ester (PHOME) as substrate. […] The cyanohydrin quickly decomposed into cyanide ion and the highly fluorescent 6-methoxy-2-naphthaldehyde which was analyzed using an excitation wavelength of 330 nm and emission wavelength of 465 nm after a 30-minute reaction time in darkness.
The background AF was subtracted from the 100% initial activity and inhibitor AFs.

[3] = Metabolic stability, human; assay type: in vitro ADME
[4] = tested on: Plasma protein; experiment: Plasma protein binding, mouse; assay type: in vitro ADME
[5] = tested on: Plasma protein; experiment: Plasma protein binding, human; assay type: in vitro ADME
[6] = Metabolic stability, mouse; assay type: in vitro ADME
[7] = Aqueous solubility @ pH 7.4; assay type: physicochemical
[8] = tested on: Caco-2; experiment: Caco-2 permeability; assay type: in vitro ADME

C[Se]/C(N)=N/C(=NS(=O)(=O)c1ccc(OC(F)(F)F)cc1)NC12CC3CC(CC(C3)C1)C2 [Compound 9i]
% iNOS inhibition [1]: 87% | IC50 [2]: 3.84 nM

CSC(=N)NC(=NS(=O)(=O)c1ccc(C(C)(C)C)cc1)NC12CC3CC(CC(C3)C1)C2 [Compound 8b, methyl N—N′-((3s,5s,7s)-adamantan-1-yl)-N′-((4-(tert-butyl)phenyl)sulfonyl)carbamimidoyl)carbamimidothioate]
% iNOS inhibition [1]: 52%

COc1ccc(S(=O)(=O)/N=C(\N=C(/N)[Se]C)NC23CC4CC(CC(C4)C2)C3)cc1 [Compound 9c]
% iNOS inhibition [1]: 94%

C/C(N)=N\C(=N\S(=O)(=O)c1ccc(OC(F)(F)F)cc1)NC12CC3CC(CC(C3)C1)C2 [Compound 7i]
IC50 [2]: 9.89 nM

O=C(NC12CC3CC(CC(C3)C1)C2)NS(=O)(=O)c1ccc2ccccc2c1 [Compound 5e]
Metabolic stability Half life [3]: 33.4 min | Metabolic stability % remaining after 1 h [3]: 45% | Plasma protein binding % of bound comp [4]: 98% | Plasma protein binding % of stability [4]: 88% | IC50 [2]: 1.21 nM | Plasma protein binding % of stability [5]: 99% | Metabolic stability Half life [6]: 2.2 min | Metabolic stability % remaining after 1 h [6]: 0%

O=C(NC12CC3CC(CC(C3)C1)C2)NS(=O)(=O)c1ccccc1 [Compound 5d, N-(((3s,5s,7s)-adamantan-1-yl)carbamoyl)benzenesulfonamide]
IC50 [2]: 104 nM

C[Se]C(=N)NC(=NS(=O)(=O)c1ccc(C(F)(F)F)cc1)NC12CC3CC(CC(C3)C1)C2 [Compound 9j, methyl N—N′-((3s,5s,7s)-adamantan-1-yl)-N′-((4-(trifluoromethyl)phenyl)sulfonyl)carbamimidoyl)carbamimidoselenoate]
% iNOS inhibition [1]: 90%

O=S(=O)(NC(=S)NC12CC3CC(CC(C3)C1)C2)c1ccccc1 [Compound 11c, N-(((3s,5s,7s)-adamantan-1-yl)carbamothioyl)benzenesulfonamide]
IC50 [2]: 131 nM

CS/C(N)=N/C(=NS(=O)(=O)c1ccc(OC(F)(F)F)cc1)NC12CC3CC(CC(C3)C1)C2 [Compound 8i]
IC50 [2]: 1.02 nM

C[Se]C(=N)NC(=NS(=O)(=O)c1ccc(C#N)cc1)NC12CC3CC(CC(C3)C1)C2 [Compound 9h, methyl N—N′-((3s,5s,7s)-adamantan-1-yl)-N′-((4-cyanophenyl)-sulfonyl)carbamimidoyl)carbamimidoselenoate]
% iNOS inhibition [1]: 93%

O=C(NC12CC3CC(CC(C3)C1)C2)NS(=O)(=O)c1ccc(OC(F)(F)F)cc1 [Compound 5i, N-(((3s,5s,7s)-adamantan-1-yl)carbamoyl)-4-(trifluoromethoxy)benzenesulfonamide]
Metabolic stability Half life [3]: 106.3 min | Metabolic stability % remaining after 1 h [3]: 80% | Plasma protein binding % of bound comp [4]: 98% | Aqueous Solubility @ pH 7.4 [7]: 53 μg/mL | IC50 [2]: 1.69 nM | Plasma protein binding % of stability [5]: 99% | Efflux ratio ([8]; Caco-2): 0.8 | Caco-2 permeability Aical to Basal (Papp) ([8]; apical to basal): 14.9 cm/sec (10^−6) | Caco-2 permeability Basal to Apical (Papp) ([8]; basal to apical): 12.6 cm/sec (10^−6) | Metabolic stability Half life [6]: 4.9 min | Metabolic stability % remaining after 1 h [6]: 0%

O=S(=O)(NC(=S)NC12CC3CC(CC(C3)C1)C2)c1ccc(OC(F)(F)F)cc1 [Compound 11d, N-(((3s,5s,7s)-adamantan-1-yl)carbamothioyl)-4-(trifluoromethoxy)benzenesulfonamide]
IC50 [2]: 4.66 nM

C[Se]C(=N)NC(=NS(=O)(=O)c1ccc(C(C)(C)C)cc1)NC12CC3CC(CC(C3)C1)C2 [Compound 9b, methyl N—N′-((3s,5s,7s)-adamantan-1-yl)-N′-((4-(tert-butyl)phenyl)sulfonyl)carbamimidoyl)carbamimidoselenoate]
% iNOS inhibition [1]: 95%

NN/C(=N/S(=O)(=O)c1ccc(OC(F)(F)F)cc1)NC12CC3CC(CC(C3)C1)C2 [Compound 13i]
IC50 [2]: 154 nM
